Assay results published in patent publication US20260207621A1 (Vividion Therapeutics, Inc., priority 2022, published 2026).

Legend:
Nrf2 = Nrf2 antagonism assay: ARE luciferase reporter in KYSE-70 cells; assay type: cell-based; conditions: positive Imax corresponds to Nrf2 antagonism; for Emax: Homo sapiens, KYSE-70, KYSE-70 cells, read-out: KYSE70 Cellular ARE Luciferase Imax (%); for KYSE70 Cellular ARE Luciferase Imax (%): KYSE-70 cells
Method in brief: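 Dose-response curves give IC50 and Imax, with positive Imax read as Nrf2 antagonism, i.e. reduced luciferase signal. Reporter cells are Nrf2-high KYSE-70 (Nrf2 W24C mutant) bearing ARE-controlled luciferase. Antagonists are proposed to act at KEAP1 C151, speeding Nrf2 degradation.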

KEAP1 C151 = biological target: T1, KEAP1 C151 (Homo sapiens, UniProt Q14145); test: Nrf2 TMT measurement: in vitro TE50 for KEAP1 C151 (IA-DTB competition, targeted TMT mass spectrometry) in MDA-MB-468 cell lysate; assay type: binding; conditions: in vitro target engagement of KEAP1 C151, targeted TMT, read-out: KEAP1_C151 TE50
T1 construct: treating 500 μg of cell lysate generated from MDA-MB-468 breast cancer cells with DMSO or compound; endogenous in cells; host or cells: MDA-MB-468 breast cancer cell lysate
T1 sequence (Q14145 whole entry): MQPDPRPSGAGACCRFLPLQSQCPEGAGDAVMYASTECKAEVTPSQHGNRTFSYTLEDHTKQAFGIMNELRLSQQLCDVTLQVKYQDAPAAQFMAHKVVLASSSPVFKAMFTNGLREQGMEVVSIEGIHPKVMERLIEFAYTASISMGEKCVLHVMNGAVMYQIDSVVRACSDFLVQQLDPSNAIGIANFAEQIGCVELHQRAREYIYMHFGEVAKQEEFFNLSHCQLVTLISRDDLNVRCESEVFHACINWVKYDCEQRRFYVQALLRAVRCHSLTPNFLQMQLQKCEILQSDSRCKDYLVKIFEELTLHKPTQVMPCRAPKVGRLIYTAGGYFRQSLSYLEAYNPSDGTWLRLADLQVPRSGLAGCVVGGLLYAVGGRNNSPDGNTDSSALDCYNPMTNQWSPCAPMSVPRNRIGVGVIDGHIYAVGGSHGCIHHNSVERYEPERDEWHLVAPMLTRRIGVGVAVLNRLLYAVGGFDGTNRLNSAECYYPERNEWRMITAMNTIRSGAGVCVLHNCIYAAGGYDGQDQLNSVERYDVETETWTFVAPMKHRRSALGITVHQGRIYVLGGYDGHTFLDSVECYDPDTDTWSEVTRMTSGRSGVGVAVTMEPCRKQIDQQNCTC
Method in brief: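 Occupancy of KEAP1 C151 measured as loss of IA-DTB labeling (200 μM, 1 h, room temperature) after 1 h compound pre-treatment of MDA-MB-468 cell lysate.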

C=CC(=O)N1CC(C)(C)OCC1c1cc(Cl)nc(-c2cc(N)ncn2)c1 (single isomer, unassigned) [Compound 150, 1-(5-(2-(6-aminopyrimidin-4-yl)-6-chloropyridin-4-yl)-2,2-dimethylmorpholino)prop-2-en-1-one]
Emax (Nrf2): 97% | IC50 (KEAP1 C151): 31 nM

C=CC(=O)N1CC(C)(C)OC[C@H]1c1cc(Cl)cc(-c2nccc(N)n2)c1 (single isomer, unassigned) [Compound 155]
Emax (Nrf2): 94% | IC50 (KEAP1 C151): 67 nM

C=CC(=O)N1CC(C)(C)OC[C@H]1c1cc(Cl)cc(-c2ncc(N)cn2)c1 (single isomer, unassigned) [Compound 156]
Emax (Nrf2): 94% | IC50 (KEAP1 C151): 105 nM

C=CC(=O)N1[C@H](CO)COC[C@H]1c1cc(Cl)nc(-c2ccn3ccnc3c2)c1 (single isomer, unassigned) [Compound 157]
Emax (Nrf2): 81% | IC50 (KEAP1 C151): 12 nM

C=CC(=O)N1CCOCC12COc1c(-c3ccnc(N)n3)cc(Cl)cc12 (single isomer, unassigned) [Compound 158, 1-(7-(2-aminopyrimidin-4-yl)-5-chloro-2H-spiro[benzofuran-3,3′-morpholino]-4′-yl)prop-2-en-1-one]
Emax (Nrf2): 71% | IC50 (KEAP1 C151): 2720 nM

C=CC(=O)N1CC2(COC2)C1c1cc(Cl)cc(-c2ncnc(N)n2)c1 (single isomer, unassigned) [Compound 159, 1-(5-(3-(4-amino-1,3,5-triazin-2-yl)-5-chlorophenyl)-2-oxa-6-azaspiro[3,3]heptan-6-yl)prop-2-en-1-one]
Emax (Nrf2): 63% | IC50 (KEAP1 C151): 320 nM

C=CC(=O)N1CC2(CC2)OCC1(C)c1cc(Cl)cc(-c2ccnc(N)n2)c1 (single isomer, unassigned) [Compound 161, 1-(6-(3-(2-aminopyrimidin-4-yl)-5-chlorophenyl)-6-methyl-4-oxa-7-azaspiro[2.5]octan-7-yl)prop-2-en-1-one]
Emax (Nrf2): 83% | IC50 (KEAP1 C151): 870 nM

C=CC(=O)N1CC2(CCCC2)OCC1(C)c1cc(Cl)cc(-c2ccnc(N)n2)c1 (single isomer, unassigned) [Compound 163, 1-(8-(3-(2-aminopyrimidin-4-yl)-5-chlorophenyl)-8-methyl-6-oxa-9-azaspiro[4.5]decan-9-yl)prop-2-en-1-one]
Emax (Nrf2): 72% | IC50 (KEAP1 C151): 610 nM

C=CC(=O)N1CC2(CCCC2)OCC1(C)c1cc(Cl)cc(-c2ncnc(N)n2)c1 (single isomer, unassigned) [Compound 164, 1-(8-(3-(4-amino-1,3,5-triazin-2-yl)-5-chlorophenyl)-8-methyl-6-oxa-9-azaspiro[4.5]decan-9-yl)prop-2-en-1-one]
Emax (Nrf2): 85% | IC50 (KEAP1 C151): 440 nM

C=CC(=O)N1CC2(CC2)OCC1(C)c1cc(Cl)cc(-c2ncc(F)cn2)c1 (single isomer, unassigned) [Compound 165, 1-(6-(3-chloro-5-(5-fluoropyrimidin-2-yl)phenyl)-6-methyl-4-oxa-7-azaspiro[2.5]octan-7-yl)prop-2-en-1-one]
Emax (Nrf2): 53% | IC50 (KEAP1 C151): 330 nM

C=CC(=O)N1CC2(CCCC2)OCC1(C)c1cc(Cl)cc(-c2ncc(F)cn2)c1 (single isomer, unassigned) [Compound 166, 1-(8-(3-chloro-5-(5-fluoropyrimidin-2-yl)phenyl)-8-methyl-6-oxa-9-azaspiro[4.5]decan-9-yl)prop-2-en-1-one]
Emax (Nrf2): 50% | IC50 (KEAP1 C151): 530 nM

C=CC(=O)N1CC2(CC2)OCC1(C)c1cc(Cl)cc(-c2cc(N)ncn2)c1 (single isomer, unassigned) [Compound 167, 1-(6-(3-(6-aminopyrimidin-4-yl)-5-chlorophenyl)-6-methyl-4-oxa-7-azaspiro[2.5]octan-7-yl)prop-2-en-1-one]
Emax (Nrf2): 87% | IC50 (KEAP1 C151): 2890 nM

C=CC(=O)N1CC2(COC2)C1c1cc(Cl)cc(-c2ccnc(N)n2)c1 (single isomer, unassigned) [Compound 168]
Emax (Nrf2): 74% | IC50 (KEAP1 C151): 120 nM

C=CC(=O)N1[C@H](C(=O)N(C)C)COC[C@H]1c1cc(Cl)nc(-c2cc(N)ncn2)c1 (single isomer, unassigned) [Compound 169]
Emax (Nrf2): 82% | IC50 (KEAP1 C151): 70 nM

C=CC(=O)N1CC2(CCCC2)OCC1(C)c1cc(Cl)cc(-c2cc(N)ncn2)c1 (single isomer, unassigned) [Compound 170, 1-(8-(3-(6-aminopyrimidin-4-y1)-5-chlorophenyl)-8-methyl-6-oxa-9-azaspiro[4.5]decan-9-yl)prop-2-en-1-one]
Emax (Nrf2): 81% | IC50 (KEAP1 C151): 1670 nM

C=CC(=O)N1CC2(CCCC2)OCC1(C)c1cc(Cl)cc(-c2nccc(N)n2)c1 (single isomer, unassigned) [Compound 171, 1-(8-(3-(4-aminopyrimidin-2-yl)-5-chlorophenyl)-8-methyl-6-oxa-9-azaspiro[4.5]decan-9-yl)prop-2-en-1-one]
Emax (Nrf2): 72% | IC50 (KEAP1 C151): 350 nM

C=CC(=O)N1[C@H](C(N)=O)COC[C@H]1c1cc(Cl)nc(-c2cc(N)ncn2)c1 (single isomer, unassigned) [Compound 172]
Emax (Nrf2): 71% | IC50 (KEAP1 C151): 20 nM

C=CC(=O)N1[C@H](C(=O)NC)COC[C@H]1c1cc(Cl)nc(-c2cc(N)ncn2)c1 (single isomer, unassigned) [Compound 173]
Emax (Nrf2): 86% | IC50 (KEAP1 C151): < 6.4 nM

C=CC(=O)N1CC2(CC2)OCC1c1cc(Cl)nc(-c2cc(N)ncn2)c1 (single isomer, unassigned) [Compound 174, 1-(6-(2-(6-aminopyrimidin-4-yl)-6-chloropyridin-4-yl)-4-oxa-7-azaspiro[2.5]octan-7-yl)prop-2-en-1-one]
KYSE70 Cellular ARE Luciferase Imax (%) (Nrf2): 51% | IC50 (KEAP1 C151): 76 nM

C=CC(=O)N1CC2(CC2)OCC1c1cc(Cl)nc(-c2cc(N)ncn2)c1 (single isomer, unassigned) [Compound 175, 1-(6-(2-(6-aminopyrimidin-4-yl)-6-chloropyridin-4-yl)-4-oxa-7-azaspiro[2.5]octan-7-yl)prop-2-en-1-one]
KYSE70 Cellular ARE Luciferase Imax (%) (Nrf2): 92% | IC50 (KEAP1 C151): 32 nM

C=CC(=O)N1CCOC[C@H]1c1cc(Cl)cc(-c2nc(N)[nH]c(=O)n2)c1 (single isomer, unassigned) [Compound 177]
Emax (Nrf2): 87% | IC50 (KEAP1 C151): 150 nM

C=CC(=O)N1CCOC[C@H]1c1cc(Cl)cc(-c2nc(C)nc(N)n2)c1 (single isomer, unassigned) [Compound 178]
Emax (Nrf2): 93% | IC50 (KEAP1 C151): 30 nM

C=CC(=O)N1C[C@@H](C)OC[C@H]1c1cc(Cl)cc(-c2ccc(F)c(C(N)=O)c2)c1 (single isomer, unassigned) [Compound 179]
Emax (Nrf2): 92% | IC50 (KEAP1 C151): 190 nM

C=CC(=O)N1[C@H](c2cc(Cl)nc(-c3ccc(F)c(C(N)=O)c3)c2)COC[C@H]1C(F)F (single isomer, unassigned) [Compound 180]
Emax (Nrf2): 90% | IC50 (KEAP1 C151): 7.3 nM

C=CC(=O)N1C[C@H](C)OC[C@H]1c1cc(Cl)cc(-c2ccc(F)c(C(N)=O)c2)c1 (single isomer, unassigned) [Compound 182]
Emax (Nrf2): 89% | IC50 (KEAP1 C151): 16 nM

C=CC(=O)N1CCN(C(C)=O)C[C@H]1c1cc(Cl)cc(-c2nccc(N)n2)c1 (single isomer, unassigned) [Compound 183]
Emax (Nrf2): 87% | IC50 (KEAP1 C151): 27 nM

C=CC(=O)N1CCN(C(C)=O)C[C@H]1c1cc(Cl)cc(-c2cc(N)ncn2)c1 (single isomer, unassigned) [Compound 187]
Emax (Nrf2): 71% | IC50 (KEAP1 C151): 120 nM

C=CC(=O)N1CCN(C(C)=O)C[C@H]1c1cc(Cl)cc(-c2ncc(N)cn2)c1 (single isomer, unassigned) [Compound 188]
Emax (Nrf2): 86% | IC50 (KEAP1 C151): 18 nM

C=CC(=O)N1CC2(CC2)OCC1c1cc(Cl)nc(-c2ccn3ccnc3c2)c1 (single isomer, unassigned) [Compound 190, 1-(6-(2-chloro-6-(imidazo[1,2-a]pyridin-7-yl)pyridin-4-yl)-4-oxa-7-azaspiro[2,5]octan-7-yl)prop-2-en-1-one]
Emax (Nrf2): 75% | IC50 (KEAP1 C151): 6.6 nM

C=CC(=O)N1CCOC[C@H]1c1cc(Cl)cc(-c2nc(N)nc(N)n2)c1 (single isomer, unassigned) [Compound 191]
Emax (Nrf2): 93% | IC50 (KEAP1 C151): 12 nM

C=CC(=O)N1CC2(CC2)OCC12COc1c(-c3ccnc(N)n3)cc(Cl)cc12 (single isomer, unassigned) [Compound 192]
Emax (Nrf2): 64% | IC50 (KEAP1 C151): 6710 nM

C=CC(=O)N1[C@H](c2cc(Cl)nc(-c3ccnc(N)n3)c2)COC[C@H]1C(F)F (single isomer, unassigned) [Compound 203]
Emax (Nrf2): 87% | IC50 (KEAP1 C151): 11 nM

C=CC(=O)N1[C@H](CC#N)COC[C@H]1c1cc(Cl)cc(-c2cc(N)ncn2)c1 (single isomer, unassigned) [Compound 204]
Emax (Nrf2): 86% | IC50 (KEAP1 C151): 11 nM

C=CC(=O)N1CCS(=O)(=O)CC1c1cc(Cl)cc(-c2ncnc(N)n2)c1 (single isomer, unassigned) [Compound 205, 1-(3-(3-(4-amino-1,3,5-triazin-2-yl)-5-chlorophenyl)-1,1-dioxidothiomorpholino)prop-2-en-1-one]
KYSE70 Cellular ARE Luciferase Imax (%) (Nrf2): 92% | IC50 (KEAP1 C151): 34 nM

C=CC(=O)N1CCS(=O)(=O)CC1c1cc(Cl)cc(-c2ncnc(N)n2)c1 (single isomer, unassigned) [Compound 206, 1-(3-(3-(4-amino-1,3,5-triazin-2-yl)-5-chlorophenyl)-1,1-dioxidothiomorpholino)prop-2-en-1-one]
KYSE70 Cellular ARE Luciferase Imax (%) (Nrf2): 55% | IC50 (KEAP1 C151): 520 nM
